From US11649227B2, “Allosteric chromenone inhibitors of phosphoinositide 3-kinase (PI3K) for the treatment of disease” (Petra Pharma Corporation, priority 2020, dated 2023) come the findings set out here.

Assay [1] concerns the target human full length PIK3CA Wild-type (p110α/p85α complex) (Homo sapiens (Human), UniProt P42336). Description: PI3K-Alpha kinase (PIK3CA) activity, wild-type, Transcreener ADP2 FI assay. The conditions noted are these: PI3K-α (PIK3CA) wild-type, biochemical. In outline:
(§1)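 Recombinant full-length p110α/p85α (1-5 nM, wild-type or H1047R) preincubated with compound 1 h at 27° C, then reacted with 25 uM ATP and 50 uM PIP2diC8 or membrane PIP2:PS in pH 7.4 HEPES, 25 mM MgCl2, 5% DMSO (also pH 6.0/6.4 MOPS). Run to ~2.5 uM ADP; Transcreener ADP2 fluorescence converted via ADP calibration for IC50.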

A further assay concerns T-47D. The experiment in a line: Cellular Assay T-47D. In kind it is cell-based. The conditions noted are these: Homo sapiens, T47D; T-47D cells.
Assay [2] addresses human full length PIK3CA H1047R mutant (p110α/p85α complex) (Homo sapiens (Human), UniProt P42336, H1047R). The experiment in a line: PI3K-Alpha kinase (PIK3CA) activity, H1047R mutant, Transcreener ADP2 FI assay. The conditions noted are these: PI3K-α (PIK3CA) H1047R mutant, biochemical. Put shortly: as §1

Each structure is given as a SMILES string. pEC50, pIC50: −log10 of the molar value. Some results are limits rather than exact numbers.

Sequence of human full length PIK3CA H1047R mutant (p110α/p85α complex) (P42336 whole entry H1047R): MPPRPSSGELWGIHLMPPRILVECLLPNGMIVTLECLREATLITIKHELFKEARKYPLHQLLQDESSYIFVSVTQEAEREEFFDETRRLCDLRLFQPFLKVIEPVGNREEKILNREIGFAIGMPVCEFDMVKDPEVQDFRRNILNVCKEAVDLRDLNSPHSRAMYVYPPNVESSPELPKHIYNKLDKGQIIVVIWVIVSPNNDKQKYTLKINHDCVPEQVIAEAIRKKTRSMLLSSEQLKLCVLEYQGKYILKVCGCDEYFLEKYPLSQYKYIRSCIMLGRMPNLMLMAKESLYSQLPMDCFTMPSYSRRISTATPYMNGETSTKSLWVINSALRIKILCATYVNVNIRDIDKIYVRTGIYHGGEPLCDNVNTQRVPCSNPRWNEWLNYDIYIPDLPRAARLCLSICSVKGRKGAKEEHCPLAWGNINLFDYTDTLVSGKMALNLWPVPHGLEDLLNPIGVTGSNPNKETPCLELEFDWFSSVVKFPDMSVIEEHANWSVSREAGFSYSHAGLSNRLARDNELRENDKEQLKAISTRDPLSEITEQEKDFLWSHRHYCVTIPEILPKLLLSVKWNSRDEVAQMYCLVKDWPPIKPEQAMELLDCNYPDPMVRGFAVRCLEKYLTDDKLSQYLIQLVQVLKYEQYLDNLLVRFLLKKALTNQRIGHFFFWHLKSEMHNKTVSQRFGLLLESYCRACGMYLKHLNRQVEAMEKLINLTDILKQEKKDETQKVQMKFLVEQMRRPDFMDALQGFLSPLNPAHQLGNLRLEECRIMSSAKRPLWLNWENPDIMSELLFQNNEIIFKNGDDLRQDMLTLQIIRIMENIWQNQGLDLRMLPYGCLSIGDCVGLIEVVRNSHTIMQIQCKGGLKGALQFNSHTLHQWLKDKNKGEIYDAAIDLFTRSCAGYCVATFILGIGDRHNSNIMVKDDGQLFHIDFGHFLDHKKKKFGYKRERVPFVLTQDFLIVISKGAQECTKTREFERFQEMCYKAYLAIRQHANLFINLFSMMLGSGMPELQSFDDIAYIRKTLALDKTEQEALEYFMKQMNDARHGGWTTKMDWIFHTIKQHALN
Sequence of human full length PIK3CA H1047R mutant (p110α/p85α complex) (P27986 whole entry partner): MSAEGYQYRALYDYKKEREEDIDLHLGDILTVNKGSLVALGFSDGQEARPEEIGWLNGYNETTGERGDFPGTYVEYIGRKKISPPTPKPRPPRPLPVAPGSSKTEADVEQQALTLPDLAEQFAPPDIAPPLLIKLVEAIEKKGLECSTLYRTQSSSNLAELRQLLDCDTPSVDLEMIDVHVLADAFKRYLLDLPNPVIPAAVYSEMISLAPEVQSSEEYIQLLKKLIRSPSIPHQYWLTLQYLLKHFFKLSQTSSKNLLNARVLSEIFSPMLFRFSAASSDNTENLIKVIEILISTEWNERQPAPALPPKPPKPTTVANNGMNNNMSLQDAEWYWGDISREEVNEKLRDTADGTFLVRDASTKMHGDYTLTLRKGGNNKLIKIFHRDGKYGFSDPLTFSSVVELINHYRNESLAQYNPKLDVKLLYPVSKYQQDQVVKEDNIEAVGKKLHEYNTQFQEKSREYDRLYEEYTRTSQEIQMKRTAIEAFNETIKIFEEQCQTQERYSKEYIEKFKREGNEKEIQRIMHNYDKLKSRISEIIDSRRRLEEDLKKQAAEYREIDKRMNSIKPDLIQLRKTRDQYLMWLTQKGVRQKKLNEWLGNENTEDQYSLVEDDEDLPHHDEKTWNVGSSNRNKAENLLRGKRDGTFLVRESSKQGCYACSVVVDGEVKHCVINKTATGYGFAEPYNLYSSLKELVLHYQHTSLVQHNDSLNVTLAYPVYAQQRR
Sequence of human full length PIK3CA Wild-type (p110α/p85α complex) (P42336 whole entry): as the sequence (P42336 whole entry H1047R) above, with R1047H counted along it
Sequence of human full length PIK3CA Wild-type (p110α/p85α complex) (P27986 whole entry partner): as the sequence (P27986 whole entry partner) above

As a reminder, the pIC50 is the negative decadic logarithm of the IC50, by convention in mol/L. High values mean a small IC50, low ones a large IC50. By pEC50 is commonly meant the negative decadic logarithm of the EC50, by convention in mol/L. As to `Cc1cc(C(C)Nc2ccccc2C(=O)O)c2oc(N3CCC(F)(F)CC3)cc(=O)c2c1` (single isomer, unassigned) [Example 130, 2-[1-[2-(4,4-Difluoro-1-piperidyl)-6-methyl-4-oxo-chromen-8-yl]ethylamino]benzoic acid], the figures for the negative logarithm of the IC50 (pIC50) in assay [1] and in assay [2] were 5.30 to 6.00 and more than 6.30, respectively. In the assay on T-47D, the pEC50 was 5.30 to 6.00.
The compound `COc1cc(C(=O)O)c(NC(C)c2cc(C)cc3c(=O)cc(N4CCC(C)(C)CC4)oc23)cc1F` (stereo not drawn) [Example 1, 2-[1-[2-(4,4-dimethyl-1-piperidyl)-6-methyl-4-oxo-chromen-8-yl]ethylamino]-4-fluoro-5-methoxy-benzoic acid] showed a pEC50 in the assay on T-47D of 4.62 to 4.82. In assay [2], this compound had a pIC50 of 5.30 to 6.00.
Turning to `CONC(=O)c1ccccc1NC(C)c1cc(C)cc2c(=O)cc(N3CCC(C)(C)CC3)oc12` (stereo not drawn) [Example 19, 2-[1-[2-(4,4-Dimethyl-1-piperidyl)-6-methyl-4-oxo-chromen-8-yl]ethylamino]-N-methoxy-benzamide], the pIC50 in assay [1] was 6.00 to 6.30. For the same compound, the pEC50 with T-47D was 4.62 to 4.82.
Turning to `Cc1cc(C(C)Nc2ccccc2-c2nnn[nH]2)c2oc(N3CCC(C)(C)CC3)cc(=O)c2c1` (stereo not drawn) [Example 20, 2-(4,4-Dimethyl-1-piperidyl)-6-methyl-8-[1-[2-(1H-tetrazol-5-yl)anilino]ethyl]chromen-4-one], in assay [1], the pIC50 was 6.00 to 6.30. In the assay on T-47D, this compound gave a pEC50 of 4.62 to 4.82.
On to `Cc1cc(C(C)Nc2ccccc2C(=O)O)c2oc(N3CCC4(CCCCO4)CC3)cc(=O)c2c1` (stereo not drawn) [Example 93, 2-[1-[6-Methyl-2-(1-oxa-9-azaspiro[5.5]undecan-9-yl)-4-oxo-chromen-8-yl]ethylamino]benzoic acid], for which the pIC50 is 5.00 to 5.30 in assay [1] and 6.00 to 6.30 in assay [2]. For the same compound, the pEC50 with T-47D was 4.82 to 5.30.
For `Cc1cc(C(C)Nc2ccccc2C(=O)O)c2oc(N3CCC4(CCCC4)CC3)cc(=O)c2c1` (stereo not drawn) [Example 96, 2-[1-[2-(8-Azaspiro[4.5]decan-8-yl)-6-methyl-4-oxo-chromen-8-yl]ethylamino]benzoic acid], in that order: 5.30 to 6.00, 6.00 to 6.30 and 5.30 to 6.00.
With `CCNc1cc(=O)c2cc(C)cc(C(C)Nc3ccccc3C(=O)O)c2o1` (stereo not drawn) [Example 126, 2-[1-[2-(Ethylamino)-6-methyl-4-oxo-chromen-8-yl]ethylamino]benzoic acid], in the assay with T-47D, the negative logarithm of the EC50 (pEC50) was less than 4.62. Moreover, in assay [2], the pIC50 is 6.00 to 6.30.
The compound `Cc1cc([C@@H](C)Nc2ccccc2C(=O)O)c2oc(N3CCCCC3)cc(=O)c2c1` [Example 376, 2-[[(1R)-1-[6-Methyl-4-oxo-2-(1-piperidyl)chromen-8-yl]ethyl]amino]benzoic acid] had a pIC50 in assay [1] of 5.30 to 6.00. The pEC50 in the assay on T-47D is 5.30 to 6.00.
On to `Cc1cc(C(C)Nc2ccccc2C(=O)O)c2oc(N3CCC4(CC3)CN(C)C(=O)O4)cc(=O)c2c1` (stereo not drawn) [Example 380, 2-[1-[6-Methyl-2-(3-methyl-2-oxo-1-oxa-3,8-diazaspiro[4.5]decan-8-yl)-4-oxo-chromen-8-yl]ethylamino]benzoic acid], for which, in the assay on T-47D, the pEC50 was less than 4.62. This compound had a pIC50 in assay [2] of 5.30 to 6.00.
